How the values were obtained:
[1] = target: T1, human CRFR1 (Homo sapiens, UniProt P34998); assay type: binding; conditions: for inhibition at 0.5 µM: read-out: Inhibition of [125I]-Tyr0-sauvagine specific binding; for Binding affinity fold lower than that of antalarmin: relative to antalarmin
T1 sequence (P34998 24-415): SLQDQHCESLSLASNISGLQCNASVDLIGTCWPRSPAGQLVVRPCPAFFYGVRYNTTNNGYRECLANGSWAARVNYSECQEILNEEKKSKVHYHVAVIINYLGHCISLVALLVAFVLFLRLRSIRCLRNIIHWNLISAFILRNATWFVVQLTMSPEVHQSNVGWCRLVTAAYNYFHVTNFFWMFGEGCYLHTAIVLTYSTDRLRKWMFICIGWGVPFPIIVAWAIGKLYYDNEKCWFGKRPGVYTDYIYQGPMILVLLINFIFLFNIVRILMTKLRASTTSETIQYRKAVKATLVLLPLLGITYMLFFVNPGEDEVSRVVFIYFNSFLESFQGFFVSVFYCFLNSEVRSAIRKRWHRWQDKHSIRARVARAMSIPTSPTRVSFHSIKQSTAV

[2] = target: T1, human CRFR1

| SMILES | Ki [1] | inhibition at 0.5 µM [1] | Binding affinity fold lower than that of antalarmin [1] | IC50 [2] | Times less potent than antalarmin to inhibit CRF-stimulated cAMP accumulation ([2]; relative to antalarmin) |
| --- | --- | --- | --- | --- | --- |
| CCN(CC)c1nc(C)nc2c1sc(=S)n2-c1ccc(OC)cc1OC [5b, 7-(Diethylamino)-3-(2,4-dimethoxyphenyl)-5-methylthiazolo[4,5-d]pyrimidine-2(3H)-thione] | 84.5 nM | > 50% | 5 fold |  |  |
| CCCNc1nc(C)nc2c1sc(=S)n2-c1ccc(OC)cc1OC [5a, 3-(2,4-Dimethoxyphenyl)-5-methyl-7-(propylamino)thiazolo[4,5-d]pyrimidine-2(3H)-thione] |  | < 50% |  |  |  |
| CCCCN(CCCC)c1nc(C)nc2c1sc(=S)n2-c1ccc(OC)cc1OC [5d, 7-(Dibutylamino)-3-(2,4-dimethoxyphenyl)-5-methylthiazolo[4,5-d]pyrimidine-2(3H)-thione] | 91.2 nM | > 50% | 6 fold |  |  |
| CCCCN(CC)c1nc(C)nc2c1sc(=S)n2-c1ccc(OC)cc1OC [5e, 7-(Butyl(ethyl)amino)-3-(2,4-dimethoxyphenyl)-5-methylthiazolo[4,5-d]pyrimidine-2(3H)-thione] | 170 nM | > 50% | 10 fold |  |  |
| CCCCN(CC)c1nc(C)nc2c1c(C)c(C)n2-c1c(C)cc(C)cc1C [antalarmin, reference compound] | 16.2 nM |  |  | 26 nM |  |

Results, then the compound that gave them:

| Ki [1] | inhibition at 0.5 µM [1] | Binding affinity fold lower than that of antalarmin [1] | IC50 [2] | Times less potent than antalarmin to inhibit CRF-stimulated cAMP accumulation ([2]; relative to antalarmin) | SMILES |
| --- | --- | --- | --- | --- | --- |
|  | < 50% |  |  |  | CCN(CC)c1nc(C)nc2c1sc(=O)n2-c1ccc(OC)cc1OC [8b, 7-(Diethylamino)-3-(2,4-dimethoxyphenyl)-5-methylthiazolo[4,5-d]pyrimidin-2(3H)-one] |
|  | < 50% |  |  |  | CCCNc1nc(C)nc2c1sc(=O)n2-c1ccc(OC)cc1OC [8a, 3-(2,4-Dimethoxyphenyl)-5-methyl-7-(propylamino)thiazolo[4,5-d]pyrimidin-2(3H)-one] |
|  | < 50% |  |  |  | CCCCN(CCCC)c1nc(C)nc2c1sc(=O)n2-c1ccc(OC)cc1OC [8d, 7-(Dibutylamino)-3-(2,4-dimethoxyphenyl)-5-methylthiazolo[4,5-d]pyrimidin-2(3H)-one] |
| 32.1 nM | > 50% | 2 fold | 2150 nM | 100 times | CCCN(CCC)c1nc(C)nc2c1sc(=O)n2-c1ccc(OC)cc1OC [8c, 3-(2,4-Dimethoxyphenyl)-7-(dipropylamino)-5-methylthiazolo[4,5-d]pyrimidin-2(3H)-one] |

Reference: paper PMC8387444 (Bioorganic chemistry, 2021)
